Test results taken from patent publication US11213577B2, “Treatment of cancer using recall antigens delivered by attenuated bacteria” (ALBERT EINSTEIN COLLEGE OF MEDICINE, INC., priority 2015, dated 2022).

Key:
[1] = system: MDSC (CD11b+Gr1+); assay: Analysis of MDSC (CD11b+Gr1+) in blood of Panc-02 mice by flow cytometry; format: in vivo
Experimental: (§1) FIG. 7A-7B. […] C57B16 mice were challenged with Panc-02 tumor cells and treated with Listeria-TT+GEM as described in FIG. 7A. Two days after the last treatment the percentage of MDSC (CD11b+Gr1+) was determined in blood by flow cytometry. N=5 mice per group. Representative of two experiments. […] C57B16 mice were challenged with Panc-02 tumor cells and treated with Listeria-TT+GEM as described in FIG. 7A. Two days after the last treatment the percentage of TAM (CD11b+F4/80+) was determined in the primary tumors by flow cytometry. N=5 mice per group. Representative of two experiments. The error bars represent SEM.
(§2) Panc-02 mice with advanced pancreatic cancer were treated with one high and multiple low doses of Listeria-TT (LM-TT) and GEM as described in FIG. 7A. MDSC and TAM were analyzed in the metastases by flow cytometry. Metastases of 3 mice were pooled. This experiment was performed once.

[2] = system: TAM (CD11b+F4/80+); assay: Analysis of TAM (CD11b+F4/80+) in metastases of Panc-02 mice by flow cytometry; format: in vivo
Experimental: as §1, §2

[3] = system: CD4 and CD8 T cells; assay: CD4 and CD8 T cell responses in spleen of KPC mice by flow cytometry; format: in vivo
[4] = system: CD4 and CD8 T cells; assay: CD4 and CD8 T cell responses in spleens of Panc-02 mice by flow cytometry; format: in vivo; conditions: spleens of 3 mice pooled
[5] = system: CD8 T cells; assay: CD8 T cell responses to immunodominant TT epitope after immunization; format: in vivo, BALB/cByJ mice; conditions: three immunizations with TT856-1313 protein and CpG, blood, restimulated with […]
[6] = TAM in metastases, 3 mice pooled

Nc1ccn([C@@H]2O[C@H](CO)[C@@H](O)C2(F)F)c(=O)n1 [GEM, gemcitabine]
CD80, Percentage of MDSC (CD11b+Gr1+) in Blood ([1]; MDSC in blood): 1.78 Percentage
IL-6, Percentage of MDSC (CD11b+Gr1+) in Blood ([1]; MDSC in blood): 3.59 Percentage
IL-10, Percentage of MDSC (CD11b+Gr1+) in Blood ([1]; MDSC in blood): 2.76 Percentage
MARCO, Percentage of MDSC (CD11b+Gr1+) in Blood ([1]; MDSC in blood): 3.84 Percentage
TNFα, Percentage of MDSC (CD11b+Gr1+) in Blood ([1]; MDSC in blood): 8.49 Percentage
MDSC population in blood ([1]; two days after last treatment): reduces the MDSC population
CD80, Percentage of TAM (CD11b+F4/80+) in Metastases [2, 6]: 4.28 Percentage
IL-6, Percentage of TAM (CD11b+F4/80+) in Metastases [2, 6]: 1.25 Percentage
IL-10, Percentage of TAM (CD11b+F4/80+) in Metastases [2, 6]: 1.47 Percentage
MARCO, Percentage of TAM (CD11b+F4/80+) in Metastases [2, 6]: 1.94 Percentage
TNFα, Percentage of TAM (CD11b+F4/80+) in Metastases [2, 6]: 8.85 Percentage
TAM population in metastases ([2]; two days after last treatment): reduces the TAM population
CD3CD4CD69 [3]: 10.01 Percentage
CD3CD4Granzyme B [3]: 3.5 Percentage
CD3CD4IFNγ [3]: 0.0 Percentage
CD3CD4Perforin [3]: 7.90 Percentage
CD3CD8CD69 [3]: 17.5 Percentage
CD3CD8Granzyme B [3]: 9.71 Percentage
CD3CD8IFNγ [3]: 1.7 Percentage
CD3CD8Perforin [3]: 15.60 Percentage
CD3CD4CD69 [4]: 14.2 Percentage
CD3CD4Granzyme B [4]: 4.8 Percentage
CD3CD4IFNγ [4]: 2.7 Percentage
CD3CD4Perforin [4]: 14.9 Percentage
CD3CD8CD69 [4]: 15.5 Percentage
CD3CD8Granzyme B [4]: 1.1 Percentage
CD3CD8IFNγ [4]: 0.4 Percentage
CD3CD8Perforin [4]: 4.8 Percentage

B1: TT856-1313 protein: purified non-toxic C-terminal fragment of tetanus toxoid, amino acid positions 856-1313 (protein, UniProt P04958 856-1313, looked up, fragment)
chain: STPIPFSYSKNLDCWVDNEEDIDVILKKSTILNLDINNDIISDISGFNSSVITYPDAQLVPGINGKAIHLVNNESSEVIVHKAMDIEYNDMFNNFTVSFWLRVPKVSASHLEQYGTNEYSIISSMKKHSLSIGSGWSVSLKGNNLIWTLKDSAGEVRQITFRDLPDKFNAYLANKWVFITITNDRLSSANLYINGVLMGSAEITGLGAIREDNNITLKLDRCNNNNQYVSIDKFRIFCKALNPKEIEKLYTSYLSITFLRDFWGNPLRYDTEYYLIPVASSSKDVQLKNITDYMYLTNAPSYTNGKLNIYYRRLYNGLKFIIKRYTPNNEIDSFVKSGDFIKLYVSYNNNEHIVGYPKDGNAFNNLDRILRVGYNAPGIPLYKKMEAVKLRDLKTYSVQLKLYDDKNASLGLVGTHNGQIGNDPNRDILIASNWYFNHLKDKILGCDWYFVPTDEGWT
CD8 T cell responses to immunodominant epitope [5]: CD8 T cells were activated
